Results published in the supplement of paper PMC10307832.

Tests used:
Experiment in all cases: relative viability (nuclei count vs DMSO), 5 days (fraction); higher = more cells survive
HARA = system: HARA
Summary of the method: (§1)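 After 5 days of treatment, lung cancer cells in 1536-well plates were fixed and stained in a single step (final 0.05% Triton X-100, 1% formaldehyde, 1 ug/ml Hoechst) and their nuclei counted on 4× images. Treatment had been applied by pin tool the day after seeding as one drug alone or as a fixed anchor-drug dose with five library-drug doses (not always all listed) in √10 steps. Relative viability is the nuclei count of treated wells divided by that of vehicle wells, and values are medians of duplicate plates.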

NCI-H1975 = system: NCI-H1975
Summary of the method: as §1

NCI-H1792 = system: NCI-H1792
Summary of the method: as §1

NCI-H1437 = system: NCI-H1437
Summary of the method: as §1

SW 900 = system: SW 900
Summary of the method: as §1

NCI-H596 = system: NCI-H596
Summary of the method: as §1

HCC-44 = system: HCC-44
Summary of the method: as §1

NCI-H838 = system: NCI-H838
Summary of the method: as §1

NCI-H650 = system: NCI-H650
Summary of the method: as §1

NCI-H522 = system: NCI-H522
Summary of the method: as §1

A-427 = system: A-427
Summary of the method: as §1

NCI-H1666 = system: NCI-H1666
Summary of the method: as §1

LCLC-103H = system: LCLC-103H
Summary of the method: as §1

EKVX = system: EKVX
Summary of the method: as §1

NCI-H23 = system: NCI-H23
Summary of the method: as §1

NCI-H441 = system: NCI-H441
Summary of the method: as §1

201T = system: 201T
Summary of the method: as §1

HCC-15 = system: HCC-15
Summary of the method: as §1

LK-2 = system: LK-2
Summary of the method: as §1

HCC-827 = system: HCC-827
Summary of the method: as §1

COc1cc(N2CCC(C(N)=O)CC2)ccc1Nc1nc(N)c(Cl)c(Nc2ccccc2S(=O)(=O)C(C)C)n1 [HG-5-88-01] + NC(=O)Nc1cc(-c2cccc(F)c2)sc1C(=O)N[C@H]1CCCNC1 [AZD7762] (partner 0.2 µM)
relative viability (HARA; first compound 0.04 µM): 0.493 | relative viability (HARA; first compound 0.1265 µM): 0.313 | relative viability (HARA; first compound 0.4 µM): 0.332 | relative viability (HARA; first compound 1.265 µM): 0.352 | relative viability (HARA; first compound 4 µM): 0.322 | relative viability (NCI-H1975; first compound 0.04 µM): 0.757 | relative viability (NCI-H1975; first compound 0.1265 µM): 0.756 | relative viability (NCI-H1975; first compound 0.4 µM): 0.603 | relative viability (NCI-H1975; first compound 1.265 µM): 0.328 | relative viability (NCI-H1975; first compound 4 µM): 0.348 | relative viability (NCI-H1792; first compound 0.04 µM): 0.752 | relative viability (NCI-H1792; first compound 0.1265 µM): 0.648 | relative viability (NCI-H1792; first compound 0.4 µM): 0.645 | relative viability (NCI-H1792; first compound 1.265 µM): 0.581 | relative viability (NCI-H1792; first compound 4 µM): 0.557 | relative viability (NCI-H1437; first compound 0.04 µM): 1.13 | relative viability (NCI-H1437; first compound 0.1265 µM): 1.13 | relative viability (NCI-H1437; first compound 0.4 µM): 1.07 | relative viability (NCI-H1437; first compound 4 µM): 1.2 | relative viability (SW 900; first compound 0.04 µM): 0.582 | relative viability (SW 900; first compound 0.1265 µM): 0.713 | relative viability (SW 900; first compound 0.4 µM): 0.583 | relative viability (SW 900; first compound 1.265 µM): 0.517 | relative viability (SW 900; first compound 4 µM): 0.528 | relative viability (NCI-H596; first compound 0.04 µM): 1.05 | relative viability (NCI-H596; first compound 0.1265 µM): 1.07 | relative viability (NCI-H596; first compound 0.4 µM): 1.04 | relative viability (NCI-H596; first compound 1.265 µM): 1.06 | relative viability (NCI-H596; first compound 4 µM): 0.697 | relative viability (HCC-44; first compound 0.04 µM): 0.959 | relative viability (HCC-44; first compound 0.1265 µM): 0.999 | relative viability (HCC-44; first compound 0.4 µM): 0.995 | relative viability (HCC-44; first compound 1.265 µM): 1.03 | relative viability (HCC-44; first compound 4 µM): 0.957 | relative viability (NCI-H838; first compound 0.04 µM): 0.917 | relative viability (NCI-H838; first compound 0.1265 µM): 0.958 | relative viability (NCI-H838; first compound 0.4 µM): 0.881 | relative viability (NCI-H838; first compound 1.265 µM): 0.749 | relative viability (NCI-H838; first compound 4 µM): 0.847 | relative viability (NCI-H650; first compound 0.04 µM): 1.04 | relative viability (NCI-H650; first compound 0.1265 µM): 1.07 | relative viability (NCI-H650; first compound 0.4 µM): 0.901 | relative viability (NCI-H650; first compound 1.265 µM): 1.01 | relative viability (NCI-H650; first compound 4 µM): 0.683 | relative viability (NCI-H522; first compound 0.04 µM): 0.795 | relative viability (NCI-H522; first compound 0.1265 µM): 0.842 | relative viability (NCI-H522; first compound 0.4 µM): 0.779 | relative viability (NCI-H522; first compound 1.265 µM): 0.846 | relative viability (NCI-H522; first compound 4 µM): 0.681 | relative viability (A-427; first compound 0.04 µM): 0.67 | relative viability (A-427; first compound 0.1265 µM): 0.776 | relative viability (A-427; first compound 0.4 µM): 0.744 | relative viability (A-427; first compound 1.265 µM): 0.656 | relative viability (A-427; first compound 4 µM): 0.679 | relative viability (NCI-H1666; first compound 0.04 µM): 0.75 | relative viability (NCI-H1666; first compound 0.1265 µM): 0.783 | relative viability (NCI-H1666; first compound 0.4 µM): 0.779 | relative viability (NCI-H1666; first compound 1.265 µM): 0.771 | relative viability (NCI-H1666; first compound 4 µM): 0.53 | relative viability (LCLC-103H; first compound 0.04 µM): 0.803 | relative viability (LCLC-103H; first compound 0.1265 µM): 0.761 | relative viability (LCLC-103H; first compound 0.4 µM): 0.616 | relative viability (LCLC-103H; first compound 1.265 µM): 0.828 | relative viability (LCLC-103H; first compound 4 µM): 0.697 | relative viability (EKVX; first compound 0.04 µM): 0.673 | relative viability (EKVX; first compound 0.1265 µM): 0.622 | relative viability (EKVX; first compound 0.4 µM): 0.695 | relative viability (EKVX; first compound 4 µM): 0.527 | relative viability (NCI-H23; first compound 0.04 µM): 0.483 | relative viability (NCI-H23; first compound 0.1265 µM): 0.27 | relative viability (NCI-H23; first compound 0.4 µM): 0.213 | relative viability (NCI-H23; first compound 1.265 µM): 0.235 | relative viability (NCI-H23; first compound 4 µM): 0.174 | relative viability (NCI-H441; first compound 0.04 µM): 0.964 | relative viability (NCI-H441; first compound 0.1265 µM): 0.931 | relative viability (NCI-H441; first compound 0.4 µM): 1.19 | relative viability (NCI-H441; first compound 1.265 µM): 1.08 | relative viability (NCI-H441; first compound 4 µM): 0.998 | relative viability (201T; first compound 0.04 µM): 0.54 | relative viability (201T; first compound 0.1265 µM): 0.62 | relative viability (201T; first compound 1.265 µM): 0.631 | relative viability (201T; first compound 4 µM): 0.374 | relative viability (HCC-15; first compound 0.04 µM): 1.27 | relative viability (HCC-15; first compound 0.1265 µM): 0.595 | relative viability (HCC-15; first compound 0.4 µM): 1.15 | relative viability (HCC-15; first compound 1.265 µM): 1.3 | relative viability (HCC-15; first compound 4 µM): 1.04 | relative viability (LK-2; first compound 0.04 µM): 0.326 | relative viability (LK-2; first compound 0.1265 µM): 0.329 | relative viability (LK-2; first compound 0.4 µM): 0.301 | relative viability (LK-2; first compound 4 µM): 0.157 | relative viability (HCC-827; first compound 0.04 µM): 0.313 | relative viability (HCC-827; first compound 0.1265 µM): 0.184 | relative viability (HCC-827; first compound 0.4 µM): 0.167 | relative viability (HCC-827; first compound 1.265 µM): 0.129 | relative viability (HCC-827; first compound 4 µM): 0.123
